Source: patent publication US5322944A, “Process for the synthesis of enantiomers of 3-aminochroman compounds” (Adir et Compagnie, priority 1991, dated 1994)

How the values were obtained:
5HT1 A receptors = biological target: T1, 5HT1 A receptors (Homo sapiens, UniProt P08908); assay: conventional binding techniques, 5HT1 A receptors; settings: for Ki: affinity expressed as K 0.5 (Ki) for the 5HT1 A receptors, conventional binding techniques, called K 0.5 for the (+) isomer, Ki for the (-) isomer; for selectivity (5HT1 A versus D2 receptors): ratio of D2 to 5HT1 A affinity constants
T1 sequence (P08908 1-422): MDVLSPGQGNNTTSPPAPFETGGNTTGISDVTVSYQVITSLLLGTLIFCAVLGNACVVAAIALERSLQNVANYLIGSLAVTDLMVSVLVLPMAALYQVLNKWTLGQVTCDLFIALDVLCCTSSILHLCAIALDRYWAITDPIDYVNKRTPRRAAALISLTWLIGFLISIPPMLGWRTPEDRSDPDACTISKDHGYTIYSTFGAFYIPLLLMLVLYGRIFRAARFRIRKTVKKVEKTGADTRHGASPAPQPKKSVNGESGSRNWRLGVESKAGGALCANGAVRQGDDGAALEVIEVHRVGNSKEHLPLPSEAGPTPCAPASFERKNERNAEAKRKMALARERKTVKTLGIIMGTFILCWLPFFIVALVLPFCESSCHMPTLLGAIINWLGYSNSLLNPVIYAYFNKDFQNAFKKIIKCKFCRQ
Text: (§1) If conventional binding techniques are used, the affinity of the (+) isomer of the compound of formula (II), expressed as K 0.5, is 2×10^-10for the 5HT1 A receptors and 2×10^-8 for the D2 receptors, which is equivalent to a selectivity of the order of 100.

D2 receptors = D2 receptors (Homo sapiens, UniProt P14416); assay: conventional binding techniques, D2 receptors; settings: called K 0.5 for the (+) isomer, read-out: affinity expressed as K 0.5 (Ki) for the D2 receptors
Text: as §1

D2 receptors, sequence (P14416 whole entry): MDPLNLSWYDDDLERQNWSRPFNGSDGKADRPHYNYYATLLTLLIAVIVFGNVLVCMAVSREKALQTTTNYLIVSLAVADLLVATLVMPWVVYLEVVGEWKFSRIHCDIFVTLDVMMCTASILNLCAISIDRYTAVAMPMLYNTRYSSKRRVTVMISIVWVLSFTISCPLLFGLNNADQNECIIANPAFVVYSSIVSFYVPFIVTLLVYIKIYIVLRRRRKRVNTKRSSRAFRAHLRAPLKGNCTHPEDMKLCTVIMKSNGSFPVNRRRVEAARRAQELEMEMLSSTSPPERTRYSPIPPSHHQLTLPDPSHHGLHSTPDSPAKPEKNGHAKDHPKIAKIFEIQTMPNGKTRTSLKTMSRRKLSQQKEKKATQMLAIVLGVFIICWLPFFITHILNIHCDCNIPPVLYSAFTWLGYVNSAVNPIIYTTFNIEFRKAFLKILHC

SMILES | affinity for the 5HT1 A receptors relative to that of the (-) isomer (5HT1 A receptors; (+) isomer compared with (-) isomer) | specificity relative to the (-) isomer (5HT1 A receptors; (+) isomer compared with (-) isomer, 5HT1 A versus D2) [times] | Ki (5HT1 A receptors) [nM] | selectivity (5HT1 A versus D2 receptors) (5HT1 A receptors) | Ki (D2 receptors) [nM]
CCCN(CCCCN1C(=O)CC2(CCCC2)CC1=O)C1COc2cccc(OC)c2C1 (single isomer, unassigned; (+)) [(+) isomer of the compound of formula (II)] | about 10 times | 20 | 0.2 | ~100 | 20
CCCN(CCCCN1C(=O)CC2(CCCC2)CC1=O)C1COc2cccc(OC)c2C1 (single isomer, unassigned; (-)) [(-) isomer] | – | – | 2 | ~5 | 10
